Test results published in patent US20110040086A1, “Novel Beta-Lactam Antibiotics, Methods for Their Production, and Their Use” (DRITTE PATENTPORTFOLIO BETEILIGUNGSGESELLSCHAFT MB, priority 2007, published 2011).

Assays:
[1] = system: Bacillus megaterium SBUG 1152; assay: agar diffusion test (Test System 1, antimicrobial effect); assay type: cell-based
Summary of the method: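 B. megaterium SBUG 1152 grown overnight (17 h, 37° C., 180 rpm) and seeded at 10^6 cells per 10 ml nutrient agar. Compound at 10, 50 and 100 μg, dissolved in methanol or water, applied to paper discs. Inhibition-zone diameter (mm) read after 20 h at 37° C.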

[2] = system: Staphylococcus aureus 315; assay: agar diffusion test (Test System II, multi-resistant germs); assay type: cell-based; parameters: key: r = resistant (no detectable zone of inhibition)
Summary of the method: (§1)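 Read-out is the diameter of the growth-free zone around each disc after plates incubate 18-20 hours at 37 °C. Discs hold 10, 50 or 100 μg of substance applied from methanol or aqueous solution, on agar seeded with bacteria adjusted to McFarland 0.5.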

S. epidermidis 125 = assay: as above; assay type: cell-based, Staphylococcus epidermidis; parameters: key to Diameter of zone of inhibition: r = resistant (no detectable zone of inhibition)
Summary of the method: as §1

S. epidermidis 1068 = assay: as above; assay type: cell-based, Staphylococcus epidermidis; parameters: key: r = resistant (no detectable zone of inhibition)
Summary of the method: as §1

S. epidermidis 1071 = assay: as above; assay type: cell-based, Staphylococcus epidermidis; parameters: key: r = resistant (no detectable zone of inhibition)
Summary of the method: as §1

S. epidermidis 847 = assay: as above; assay type: cell-based, Staphylococcus epidermidis; parameters: key: r = resistant (no detectable zone of inhibition)
Summary of the method: as §1

S. epidermidis 563 = assay: as above; assay type: cell-based, Staphylococcus epidermidis; parameters: key: r = resistant (no detectable zone of inhibition)
Summary of the method: as §1

## 7-[2-(2-carbamoyl-3,6-dioxocyclohexa-1,4-dienylamino)-2-(4-hydroxyphenyl)-acetylamino]-desacetoxycephalosporanic acid [1b]
[1]; Quantity n 0.019
  Diameter of zone of inhibition: 22 mm
[1]; Quantity n 0.1
  Diameter of zone of inhibition: 30 mm
[1]; Quantity n 0.19
  Diameter of zone of inhibition: 32 mm
[2]; Quantity n 0.019
  Diameter of zone of inhibition: r
[2]; Quantity n 0.1
  Diameter of zone of inhibition: r
[2]; Quantity n 0.19
  Diameter of zone of inhibition: 8 mm
S. epidermidis 125; Quantity n 0.019
  Diameter of zone of inhibition: 14 mm
S. epidermidis 125; Quantity n 0.1
  Diameter of zone of inhibition: 22 mm
S. epidermidis 125; Quantity n 0.19
  Diameter of zone of inhibition: 26 mm
S. epidermidis 1068; Quantity n 0.019
  Diameter of zone of inhibition: r
S. epidermidis 1068; Quantity n 0.1
  Diameter of zone of inhibition: 16 mm
S. epidermidis 1068; Quantity n 0.19
  Diameter of zone of inhibition: 20 mm
S. epidermidis 1071; Quantity n 0.019
  Diameter of zone of inhibition: r
S. epidermidis 1071; Quantity n 0.1
  Diameter of zone of inhibition: 18 mm
S. epidermidis 1071; Quantity n 0.19
  Diameter of zone of inhibition: 22 mm
S. epidermidis 847; Quantity n [mol] 0.019
  Diameter of zone of inhibition: r
S. epidermidis 847; Quantity n [mol] 0.1
  Diameter of zone of inhibition: 10 mm
S. epidermidis 847; Quantity n [mol] 0.19
  Diameter of zone of inhibition: 12 mm
S. epidermidis 563; Quantity n 0.019
  Diameter of zone of inhibition: r
S. epidermidis 563; Quantity n 0.1
  Diameter of zone of inhibition: 14 mm
S. epidermidis 563; Quantity n 0.19
  Diameter of zone of inhibition: 20 mm

## 7-{2-[2-(2-hydroxyethylcarbamoyl)-3,6-dioxocyclohexa-1,4-dienylamino]-2-phenyl-acetylamino}-desacetoxycephalosporanic acid [1e]
[1]; Quantity n 0.029
  Diameter of zone of inhibition: 20 mm
[1]; Quantity n 0.14
  Diameter of zone of inhibition: 28 mm
[1]; Quantity n 0.29
  Diameter of zone of inhibition: 32 mm
[2]; Quantity n 0.029
  Diameter of zone of inhibition: r
[2]; Quantity n 0.14
  Diameter of zone of inhibition: r
[2]; Quantity n 0.29
  Diameter of zone of inhibition: 12 mm
S. epidermidis 125; Quantity n 0.029
  Diameter of zone of inhibition: r
S. epidermidis 125; Quantity n 0.14
  Diameter of zone of inhibition: 24 mm
S. epidermidis 125; Quantity n 0.29
  Diameter of zone of inhibition: 28 mm
S. epidermidis 1068; Quantity n 0.029
  Diameter of zone of inhibition: r
S. epidermidis 1068; Quantity n 0.14
  Diameter of zone of inhibition: 14 mm
S. epidermidis 1068; Quantity n 0.29
  Diameter of zone of inhibition: 16 mm
S. epidermidis 1071; Quantity n 0.029
  Diameter of zone of inhibition: 10 mm
S. epidermidis 1071; Quantity n 0.14
  Diameter of zone of inhibition: 18 mm
S. epidermidis 1071; Quantity n 0.29
  Diameter of zone of inhibition: 20 mm
S. epidermidis 847; Quantity n [mol] 0.029
  Diameter of zone of inhibition: r
S. epidermidis 847; Quantity n [mol] 0.14
  Diameter of zone of inhibition: 16 mm
S. epidermidis 847; Quantity n [mol] 0.29
  Diameter of zone of inhibition: 20 mm
S. epidermidis 563; Quantity n 0.029
  Diameter of zone of inhibition: r
S. epidermidis 563; Quantity n 0.14
  Diameter of zone of inhibition: 18 mm
S. epidermidis 563; Quantity n 0.29
  Diameter of zone of inhibition: 24 mm

## 3-chlorine-7-[2-(2-methoxycarbonyl-3,6-dioxocyclohexa-1,4-dienylamino)-2-phenyl-acetylamino]-8-oxo-1-thia-5-azabicyclo[4.2.0]oct-3-en-4-carboxylic acid [1k]
[1]; Quantity n 0.029
  Diameter of zone of inhibition: 30 mm
[1]; Quantity n 0.14
  Diameter of zone of inhibition: 36 mm
[1]; Quantity n 0.29
  Diameter of zone of inhibition: 38 mm
[2]; Quantity n 0.029
  Diameter of zone of inhibition: r
[2]; Quantity n 0.14
  Diameter of zone of inhibition: 12 mm
[2]; Quantity n 0.29
  Diameter of zone of inhibition: 14 mm
S. epidermidis 125; Quantity n 0.029
  Diameter of zone of inhibition: 20 mm
S. epidermidis 125; Quantity n 0.14
  Diameter of zone of inhibition: 30 mm
S. epidermidis 125; Quantity n 0.29
  Diameter of zone of inhibition: 32 mm
S. epidermidis 1068; Quantity n 0.029
  Diameter of zone of inhibition: 14 mm
S. epidermidis 1068; Quantity n 0.14
  Diameter of zone of inhibition: 22 mm
S. epidermidis 1068; Quantity n 0.29
  Diameter of zone of inhibition: 24 mm
S. epidermidis 1071; Quantity n 0.029
  Diameter of zone of inhibition: 18 mm
S. epidermidis 1071; Quantity n 0.14
  Diameter of zone of inhibition: 24 mm
S. epidermidis 1071; Quantity n 0.29
  Diameter of zone of inhibition: 28 mm
S. epidermidis 847; Quantity n [mol] 0.029
  Diameter of zone of inhibition: 8 mm
S. epidermidis 847; Quantity n [mol] 0.14
  Diameter of zone of inhibition: 24 mm
S. epidermidis 847; Quantity n [mol] 0.29
  Diameter of zone of inhibition: 28 mm
S. epidermidis 563; Quantity n 0.029
  Diameter of zone of inhibition: 18 mm
S. epidermidis 563; Quantity n 0.14
  Diameter of zone of inhibition: 28 mm
S. epidermidis 563; Quantity n 0.29
  Diameter of zone of inhibition: 30 mm

## CCOC(=O)C1=C(NC(C(=O)NC2C(=O)N3C(C(=O)O)=C(Cl)CSC23)c2ccccc2)C(=O)C=CC1=O (stereo not drawn) [1l]
[1]; Quantity n 0.019
  Diameter of zone of inhibition: 30 mm
[1]; Quantity n 0.09
  Diameter of zone of inhibition: 34 mm
[1]; Quantity n 0.19
  Diameter of zone of inhibition: 38 mm
[2]; Quantity n 0.019
  Diameter of zone of inhibition: r
[2]; Quantity n 0.09
  Diameter of zone of inhibition: 10 mm
[2]; Quantity n 0.19
  Diameter of zone of inhibition: 14 mm
S. epidermidis 125; Quantity n 0.019
  Diameter of zone of inhibition: 18 mm
S. epidermidis 125; Quantity n 0.09
  Diameter of zone of inhibition: 26 mm
S. epidermidis 125; Quantity n 0.19
  Diameter of zone of inhibition: 28 mm
S. epidermidis 1068; Quantity n 0.019
  Diameter of zone of inhibition: 14 mm
S. epidermidis 1068; Quantity n 0.09
  Diameter of zone of inhibition: 20 mm
S. epidermidis 1068; Quantity n 0.19
  Diameter of zone of inhibition: 22 mm
S. epidermidis 1071; Quantity n 0.019
  Diameter of zone of inhibition: 16 mm
S. epidermidis 1071; Quantity n 0.09
  Diameter of zone of inhibition: 24 mm
S. epidermidis 1071; Quantity n 0.19
  Diameter of zone of inhibition: 28 mm
S. epidermidis 847; Quantity n [mol] 0.019
  Diameter of zone of inhibition: r
S. epidermidis 847; Quantity n [mol] 0.09
  Diameter of zone of inhibition: 20 mm
S. epidermidis 847; Quantity n [mol] 0.19
  Diameter of zone of inhibition: 22 mm
S. epidermidis 563; Quantity n 0.019
  Diameter of zone of inhibition: 16 mm
S. epidermidis 563; Quantity n 0.09
  Diameter of zone of inhibition: 28 mm
S. epidermidis 563; Quantity n 0.19
  Diameter of zone of inhibition: 30 mm
